For data set [1], the system named is rats with Aβ25-35-induced cognitive deficits. As to conditions: oral 20 or 40 mg/kg for 3 weeks; cited from earlier work.
The conditions of data set [2]: mainly mediated by CYP3A4; cited from earlier work.
The conditions of data set [3]: orally administered; cited from earlier work.
A further data set deals with HT22 cell. As to conditions: cited from earlier work.
Details of data set [4]: method as in earlier work. As to conditions: cited from earlier work.
For a further data set, the system named is EphA4. Details: method as in PMID 24958880. As to conditions: cited from earlier work.
Data set [5] can be described thus: Kinetic profiles of administered and generated stereoisomers in brain, CSF and plasma of rats after oral administration. The format is in vivo, male Sprague-Dawley (SD) rats. As to conditions: for AUC0-180 min, brain / Cmax, brain: rat brain; for AUC(0-t) / Cmax / half-life / Kp / Tmax: male, Sprague-Dawley, po; for half-life: read-out: t 1/2, plasma; for Kp / Tmax: rat; for Tmax: plasma. From the text: Male Sprague-Dawley (SD) rats were provided by the Laboratory Animal Service Center of The Chinese University of Hong Kong, Hong Kong, China. Animals were housed in cages during the study period under standard conditions of temperature, humidity, and light. All animal experiments were approved by the Animal Ethics Committee of The Chinese University of Hong Kong.
One day before the experiment, the male SD rats (160-200 g) were fasted overnight with free access to water. […] The dosage was the same as used in the previous pharmacodynamics studies. […] The rats were exsanguinated by cardiac puncture under anesthesia, followed by collecting their CSF (about 100 μL) through a single puncture in the cisterna magna. Plasma was obtained by centrifugation of blood at 6,000 × g for 8 min at 4°C. After blood collection, the animals were perfused transcardially with normal saline until total blood volume was removed. Then, the whole brain was promptly collected, and the surface water was blotted dry with Kimwipes (Kimberly-Clark™). Blood vessels and meninges were carefully removed with forceps and the brain was weighted. All samples were stored at −20°C until analysis.
Brain homogenate was freshly prepared by homogenizing brain tissues in normal saline (1:2, w/v). Homogenization was conducted in an ice bath using the IKA T10 basic ULTRA-TURRAX Homogenizer for 20–30 s.
The biological samples including brain homogenate, CSF, and plasma (50 μL each) were deproteinized by adding 150 μL of acetonitrile (containing 20 ng/mL IS). After vortex mixing for 1 min, the mixture was centrifuged (20,000 × g) for 10 min at 4°C. After centrifugation, an aliquot (5 μL) of supernatant was subjected to the LC-MS/MS analysis.
The chromatographic separation was achieved on ZORBAX Eclipse Plus C18 column (2.1 × 100 mm, 1.8 μm, Agilent) maintained at 40°C temperature at a flow rate of 0.3 mL/min. A gradient mobile phase consisting of 0.1% formic acid in acetonitrile (A) and 0.1% formic acid in water (B) was eluted as follows: 0–1 min, A, 15–20%; 1–5 min, A, 20–25%; 5–7 min, A, 25–95%; 7–10 min, A held at 95% and returned to the initial condition (acetonitrile-water ratio 15 : 85) for a 3 min equilibration. The temperature of the auto-sampler was kept at 4°C.
All the data were processed using Agilent MassHunter Workstation Software Quantitative Analysis Version B.07.00/Build 7.0.457.0 (Agilent).
Kinetic parameters were calculated using the WinNonlin software (Version 4.0, Pharsight Corp, Mountain View, CA, US) employing a noncompartmental model approach. Epimerization ratio was calculated by AUC(generated stereoisomer)/(AUC(generated stereoisomer) + AUC(administered stereoisomer)) × 100%. The brain-to-plasma partition coefficient (Kp, Brain) was calculated by AUCBrain/AUCPlasma, and the CSF-to-plasma partition coefficient (Kp, CSF) was calculated by AUCCSF/AUCPlasma.
All the data in the study were expressed as mean ± SEM. Statistical analyses were performed using GraphPad Prism 6.0 (GraphPad Software Inc, San Diego, CA, US) using two tailed unpaired t-test for two groups comparison. Statistical significance was set at p value less than 0.05.

A further data set relates to APP/PS1 transgenic mice. On the set-up: method as in PMID 24958880. Conditions: oral 50 mg/kg/day for 3-4 weeks; cited from earlier work.
In a further data set the test system is P-gp efflux transporter. Conditions: cited from earlier work.
Setting [6] is: administered stereoisomer, 20 mg/kg p.o., rat CSF.
[7] abbreviates: administered stereoisomer, 20 mg/kg p.o.
Where [8] appears, read: generated stereoisomer after 20 mg/kg p.o. of the other stereoisomer.
Where [9] appears, read: administered stereoisomer, 20 mg/kg p.o. of the same compound, rat plasma, mean ± SEM, read-out: AUC0-180 min, plasma (converted).
Setting [10] is: administered stereoisomer, 20 mg/kg p.o., rat CSF, read-out: AUC0-180 min, CSF (converted).
Where [11] appears, read: administered stereoisomer, 20 mg/kg p.o., rat plasma.
The mark [12] stands for this setting: CSF (relative to plasma), administered stereoisomer, 20 mg/kg p.o., AUCCSF/AUCPlasma, read-out: Kp,CSF (CSF-to-plasma partition coefficient).
Setting [13] is: brain (relative to plasma), administered stereoisomer, 20 mg/kg p.o., AUCBrain/AUCPlasma, read-out: Kp,Brain (brain-to-plasma partition coefficient).
Where [14] appears, read: 20 mg/kg, administered stereoisomer, 20 mg/kg p.o., rat plasma.

Structures are written as SMILES. Values joined by “and” are separate entries in the source; they are usually repeats but may differ in a detail not shown here. Identical values can stand only once. Like-named read-outs stand apart in the source and are kept apart here.

`CC[C@H]1CN2CC[C@@]3(C(=O)Nc4ccccc43)[C@@H]2C[C@@H]1/C(=C\OC)C(=O)OC` [IRN, Isorhynchophylline]: the “Cognitive deficits induced by Aβ25-35” value in [1] is “ameliorated cognitive deficits”. For the same compound, the “Metabolism in rat liver microsomes” value in data set [2] was “much more favorable to be metabolized than RN”. Further, the Bioavailability in [3] is given as 3.3 ± 0.8%. Moreover, the “Neuroprotective activity against glutamate-induced HT22 cell injury” value in the data set on HT22 cell is “significant neuroprotective activity”. In addition, the pKa in data set [4] is listed as 5.20. For the same compound, the “Inhibition of EphA4” value in the data set with EphA4 was “not”. Further, the “Cmax, CSF” value in [5] (setting [6]) is reported as 2.14 ± 0.34 ng/mL. The entries for the “AUC0-180 min, brain” value in data set [5] (setting [7]) and in [5] (setting [8]) were 627.37 ± 43.31 ng·min/g and 140.76 ± 1.50 ng·min/g, respectively. Besides, the “Cmax, brain” value in data set [5] (setting [7]) was determined as 7.35 ± 0.74 ng/g. Moreover, in [5] (after oral administration of IRN 20 mg/kg, rats), the “Administered IRN metabolically converted to RN” value is “at least 47%”. The figures for the AUC(0-t) in data set [5] (setting [9]) and in data set [5] (setting [10]) were 41.4 ng·h/mL and 3.4 ng·h/mL, respectively. This compound also returned a Cmax in data set [5] (setting [11]) of 31.3 ± 1.59 ng/mL. The half-life in data set [5] (setting [11]) came to 1.07 ± 0.0532 h. The Kp in [5] (setting [12]) worked out at 0.0821 ± 0.005; in data set [5] (setting [13]), 0.253 ± 0.0187. Moreover, the Tmax in data set [5] (setting [14]) was not above 0.5 h.

Take `CC[C@H]1CN2CC[C@]3(C(=O)Nc4ccccc43)[C@@H]2C[C@@H]1/C(=C\OC)C(=O)OC` [RN, rhynchophylline]: in the data set with APP/PS1 transgenic mice, the “Long-term potentiation in the hippocampus” value was “restored the impaired long-term potentiation”. Moreover, the Bioavailability in [3] is 25.9 ± 8.7%. The “Neuroprotective activity against glutamate-induced HT22 cell injury” value in the data set on HT22 cell is reported as “weak effect”. Moreover, the pKa in data set [4] is 6.32. Besides, the “Inhibition of EphA4” value in the data set with EphA4 is listed as “potent inhibitor”. For the same compound, the “Cmax, CSF” value in [5] (setting [6]) was 7.39 ± 0.17^∗∗∗ ng/mL. In data set [5] (setting [7]), the “Cmax, brain” value is given as 16.96 ± 1.92^∗∗ ng/g. Also, the “AUC0-180 min, brain” value in data set [5] (administered stereoisomer, 20 mg/kg p.o., 20 mg/kg) was 1587.03 ± 127.82 ng·min/g and 1587.03 ± 127.82^∗∗ ng·min/g; in [5] (setting [8]), 296.63 ± 9.49^∗∗ ng·min/g. Besides, the values for the AUC(0-t) in data set [5] (setting [9]) and in [5] (setting [10]) were 273 ng·h/mL and 12.4 ng·h/mL, respectively. In addition, the highest level in [5] (setting [11]) (Cmax) was 191 ± 6.34 ng/mL. The half-life in data set [5] (setting [11]) turned out to be 2.16 ± 0.155 h. Also, the Kp in data set [5] (setting [12]) is 0.0453 ± 0.0002; in [5] (setting [13]) it was 0.0967 ± 0.0063. Also, in [5] (setting [14]), the Tmax is not above 0.5 h. The “Membrane permeability, effect of P-gp efflux” value with P-gp efflux transporter is on record as “affected by P-gp efflux transporter”.

(Values after publication PMC6377964 (Evidence-based Complementary and Alternative Medicine : eCAM, 2019).)
